What was measured:
[1] = target: isolated recombinant JAK1 kinase domain (Homo sapiens (Human), UniProt P23458); test: JAK1 enzyme assay (Caliper LabChip, peptide phosphorylation); type: biochemical; conditions: 25 μM ATP
Experimental: (§1) JAK Enzyme Assays were carried out as follows:
(§2) The activity of the isolated recombinant JAK1 and JAK2 kinase domain was measured by monitoring phosphorylation of a peptide derived from JAK3 ([…] fluorescently labeled on the N-terminus with 5-carboxyfluorescein) using the Caliper LabChip® technology (Caliper Life Sciences, Hopkinton, Mass.). […] Reactions were incubated at 22° C. in 384-well polypropylene microtiter plates for 30 minutes and then stopped by addition of 25 μL of an EDTA containing solution (100 mM HEPES buffer (pH 7.2), 0.015% Brij-35, 150 mM EDTA), resulting in a final EDTA concentration of 50 mM. After termination of the kinase reaction, the proportion of phosphorylated product was determined as a fraction of total peptide substrate using the Caliper LabChip® 3000 according to the manufacturer's specifications.

[2] = target: isolated recombinant JAK2 kinase domain (Homo sapiens (Human), UniProt O60674); test: JAK2 enzyme assay (Caliper LabChip, peptide phosphorylation); type: biochemical; conditions: 25 μM ATP
Experimental: as §1, §2

[3] = Clearance assay: mouse intravenous (IV) clearance; type: in vivo; conditions: female BALB/c mice, single IV dose of 1 mg/kg
Excerpt: In certain instances high systemic clearance of a drug substance may be of benefit. For example, in the treatment of pulmonary diseases it may be beneficial to have high drug concentrations in the lung, with lower concentrations in the bloodstream or peripheral organs. In such cases, it may be advantageous to administer a drug substance with high systemic clearance via the inhaled delivery route. This approach may maximize pharmacologic activity of the drug substance in the lung while minimizing the possibility of on-target toxicity elsewhere in the body. The functional groups appended to the 5-chloro-2-difluoromethoxyphenyl pyrazolopyrimidine scaffold affect systemic clearance.
Female BALB/c mice were obtained from Charles River Labs (Hollister, Calif. USA). Twelve animals were given a single IV dose of 1 mg/kg of compounds via the tail vein. A representative dose solution was prepared as follows: the compound was dissolved in a mixture of 5% dimethylsulfoxide (DMSO), 35% polyethylene glycol (PEG 400), and 60% water (v/v/v), respectively, and administered at a dosing volume of 5 mL/kg. Mice weighed approximately 20-25 g at the start of the study. […] PK data analysis was performed on mean plasma concentration-time data and PK parameters were determined by non compartmental methods using WinNonlin® Enterprise, version 5.2.1 (Pharsight Corporation; Mountain View, Calif.).

Sequence of isolated recombinant JAK1 kinase domain (P23458 875-1153): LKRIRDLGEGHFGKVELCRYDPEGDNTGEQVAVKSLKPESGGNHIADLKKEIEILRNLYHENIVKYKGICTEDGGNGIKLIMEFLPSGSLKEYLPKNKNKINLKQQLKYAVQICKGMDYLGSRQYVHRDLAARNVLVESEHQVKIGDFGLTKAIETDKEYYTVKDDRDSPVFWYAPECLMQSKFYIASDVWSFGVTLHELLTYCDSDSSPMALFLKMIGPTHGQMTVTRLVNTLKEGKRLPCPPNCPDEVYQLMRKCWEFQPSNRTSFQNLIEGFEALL
Sequence of isolated recombinant JAK2 kinase domain (O60674 849-1124): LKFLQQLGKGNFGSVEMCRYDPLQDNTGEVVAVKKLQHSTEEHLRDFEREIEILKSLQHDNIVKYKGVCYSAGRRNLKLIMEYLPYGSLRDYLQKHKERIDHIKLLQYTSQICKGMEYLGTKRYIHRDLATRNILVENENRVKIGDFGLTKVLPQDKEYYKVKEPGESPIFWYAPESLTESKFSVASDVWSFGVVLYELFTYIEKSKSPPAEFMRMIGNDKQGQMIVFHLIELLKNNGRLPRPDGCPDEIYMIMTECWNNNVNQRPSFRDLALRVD

CNC(=O)[C@@H]1CCCN1CC1CCN(C(=O)Cn2cc(NC(=O)c3cnn4cccnc34)c(-c3cc(Cl)ccc3OC(F)F)n2)CC1 [Example 425, N-(3-(5-chloro-2-(difluoromethoxy)phenyl)-1-(2-(4-(((S)-2-(methylcarbamoyl)pyrrolidin-1-yl)methyl)piperidin-1-yl)-2-oxoethyl)-1H-pyrazol-4-yl)pyrazolo[1,5-a]pyrimidine-3-carboxamide]
Ki [1]: 0.6 nM | Ki [2]: 1.64 nM

CC(C)(O)Cn1cc(NC(=O)c2cnn3cccnc23)c(-c2cc(Cl)ccc2OC(F)F)n1 [compound i]
mouse IV clearance as % of mouse liver blood flow [3]: 6 % of mouse liver blood flow
